Earlier results as cited in patent publication US20120142546A1, “HYPOMETHYLATED GENES IN CANCER” (THE JOHNS HOPKINS UNIVERSITY, priority 2007, published 2012).

Test system: cancers involving the lung, esophagus, or pleura

Structure (SMILES): Nc1ncn([C@H]2C[C@H](O)[C@@H](CO)O2)c(=O)n1 [5-aza-2′-deoxycytidine]
- NY-ESO-1 and MAGEA3 expression in treated patients: upregulated in a proportion of patients
